Publication PMC4710668, “Bioactivation of food genotoxicants 5-hydroxymethylfurfural and furfuryl alcohol by sulfotransferases from human, mouse and rat: a comparative study” (Archives of Toxicology, 2014)

Key:
[1] = tested on: S. typhimurium TA100 strains expressing different SULT forms; settings: ref Glatt et al. [2012]; cited from earlier work
hSULT1B1 = target: T1, hSULT1B1 (Homo sapiens, UniProt O43704); assay: HMF sulfoconjugation assay; format: biochemical
T1 construct: made in house; host or cells: Salmonella typhimurium TA1538 (cytosolic fraction, not purified)
T1 sequence (O43704 whole entry): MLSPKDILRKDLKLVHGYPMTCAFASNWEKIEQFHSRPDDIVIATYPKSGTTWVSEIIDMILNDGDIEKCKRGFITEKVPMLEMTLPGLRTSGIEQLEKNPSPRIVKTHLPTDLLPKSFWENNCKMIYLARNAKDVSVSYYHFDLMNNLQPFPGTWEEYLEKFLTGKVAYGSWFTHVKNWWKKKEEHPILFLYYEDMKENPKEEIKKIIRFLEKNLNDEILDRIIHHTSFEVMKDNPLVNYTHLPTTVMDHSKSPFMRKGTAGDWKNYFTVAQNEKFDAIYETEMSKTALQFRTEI
Protocol: (§1) Cytosolic fractions containing individual SULT forms were prepared from transgenic S. typhimurium TA1538. Table S1 in the Supplementary Material provides a summary of the thirty SULTs used in the current study together with references describing the cloning of the respective S. typhimurium TA1538 strains. The expressed SULT forms are denoted with the prefixes h, m and r for human, mouse and rat enzymes, respectively. Bacteria were grown in Luria Broth medium containing ampicillin (100 µg/ml) by stirring for 8 h at 200 revolutions/min at 37 °C. The bacterial suspensions were centrifuged at 5,000 g for 10 min. The sediments were washed twice with 25 ml of 10 mM potassium phosphate buffer (pH 7.4)/50 mM potassium chloride (KCP buffer) and centrifuged again. The pellets were taken up in 800 µl KCP buffer and sonicated thrice for 15 s with 30 s pauses in between. The soluble fraction was attained by centrifuging for 1 h at 100,000 g. The supernatants (in the following termed cytosolic preparations) were frozen at −80 °C. The protein concentrations were determined according to a bicinchoninic acid (BCA) assay protocol. The SULT concentrations in the cytosolic preparations were estimated after electrophoretic separation and immunodetection using inclusion bodies of different SULT forms as standards (Teubner et al. [2007]). The preparation of SULT inclusion bodies and the immunodetection of SULTs is described in the Supplementary Material, which also contains a representative immunoblot of different amounts of rSult1a1standard and a cytosolic preparation of S. typhimurium expressing rSult1a1 (Fig. S1).
(§2) The reactions were conducted in mixtures of 100 µl containing 25–200 µg protein, 50 mM potassium phosphate buffer (pH 7.4), 5 mM MgCl2, 50 µM PAPS and different concentrations of HMF at 37 °C. Preliminary experiments ensured that measurements were recorded under ‘linear’ conditions, i.e., doubling of protein concentration or incubation time was doubling the amount of sulfate ester formed. The reactions were stopped after 30 min by adding 300 µl ice-cold 2-propanol, mixed and centrifuged at 15,000 g for 10 min.
(§3) SMF concentrations of the clear supernatants were analyzed by UPLC-MS/MS. The protocol was adapted from the quantification of SMF in plasma samples of HMF-treated mice (Monien et al. [2009]). In short, the supernatants were analyzed using a UPLC system (Waters) connected to a Quattro Premier XE tandem quadrupole mass spectrometer (Waters) using the negative electrospray ionization mode. Samples of 4 µl were injected into a HSS T3 column (1.8 µm, 2.1 × 100 mm; Waters) and eluted with an isocratic flow of 0.35 ml/min 10 mM ammonium acetate/methanol (95:5). The fragmentation reactions of SMF yielding two principal ions, the sulfate ion radical (m/z = 204.9 → 96.0) and the protonated sulfonate ion (m/z = 204.9 → 81.0) were monitored. The tune parameters were as follows: temperature of the electrospray source 120 °C; desolvation temperature 475 °C; desolvation gas nitrogen (800 l/h); cone gas nitrogen (100 l/h); collision gas argon (indicated cell pressure ~5 × 10^−3 mbar). For the fragmentation of SMF, collision energies were 20 and 23 eV for the transitions m/z = 204.9 → 81.0 and m/z = 204.9 → 96.0, respectively. The dwell time was set to 100 ms, and capillary voltage was set to 0.35 kV. The cone and RF1 lens voltages were 32 and 0.2 V, respectively. SMF was quantified using an external calibration line that was linear in the concentration range of 1.0 nM (4 fmol/injection) to 2,500 (10 pmol/injection) SMF (r ^2 ≥ 0.99). Data acquisition and handling were performed with MassLynx 4.1 software (Waters). The limit of detection (LOD) for this technique of 2.5 nM SMF has been reported (Monien et al. [2009]). In the current study, this corresponds to 10 fmol SMF per injection or a reaction rate of 0.5 pmol SMF/mg/min.

hSULT2A1 = target: T2, hSULT2A1 (Homo sapiens, UniProt Q06520); assay: HMF sulfoconjugation assay; format: biochemical
T2 construct: made in house; host or cells: Salmonella typhimurium TA1538 (cytosolic fraction, not purified)
T2 sequence (Q06520 1-285): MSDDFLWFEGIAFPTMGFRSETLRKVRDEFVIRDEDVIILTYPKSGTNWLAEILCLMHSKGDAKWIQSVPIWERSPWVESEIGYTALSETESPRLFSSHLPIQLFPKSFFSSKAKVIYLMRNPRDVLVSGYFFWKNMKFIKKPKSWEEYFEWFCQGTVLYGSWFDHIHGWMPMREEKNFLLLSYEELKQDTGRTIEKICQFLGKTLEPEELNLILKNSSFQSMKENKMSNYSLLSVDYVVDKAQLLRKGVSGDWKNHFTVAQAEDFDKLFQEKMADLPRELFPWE
Protocol: as §1, §2, §3

mSult1e1 = target: T3, mSult1e1 (Mus musculus, UniProt P49891); assay: HMF sulfoconjugation assay; format: biochemical
T3 construct: made in house; host or cells: Salmonella typhimurium TA1538 (cytosolic fraction, enzyme not purified)
T3 sequence (P49891 1-295): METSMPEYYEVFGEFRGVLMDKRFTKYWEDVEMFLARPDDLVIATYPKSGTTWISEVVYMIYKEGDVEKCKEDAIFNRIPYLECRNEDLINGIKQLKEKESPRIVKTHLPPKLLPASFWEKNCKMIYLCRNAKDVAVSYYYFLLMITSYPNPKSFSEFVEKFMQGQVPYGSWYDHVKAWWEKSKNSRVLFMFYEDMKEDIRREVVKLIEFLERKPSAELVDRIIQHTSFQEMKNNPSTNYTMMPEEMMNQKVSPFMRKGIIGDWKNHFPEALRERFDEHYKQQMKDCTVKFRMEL
Protocol: as §1, §2, §3

mSult1c2 = target: T4, mSult1c2 (Mus musculus, UniProt Q9D939); assay: HMF sulfoconjugation assay; format: biochemical
T4 construct: made in house; host or cells: Salmonella typhimurium TA1538 (cytosolic fraction, enzyme not purified)
T4 sequence (Q9D939 whole entry): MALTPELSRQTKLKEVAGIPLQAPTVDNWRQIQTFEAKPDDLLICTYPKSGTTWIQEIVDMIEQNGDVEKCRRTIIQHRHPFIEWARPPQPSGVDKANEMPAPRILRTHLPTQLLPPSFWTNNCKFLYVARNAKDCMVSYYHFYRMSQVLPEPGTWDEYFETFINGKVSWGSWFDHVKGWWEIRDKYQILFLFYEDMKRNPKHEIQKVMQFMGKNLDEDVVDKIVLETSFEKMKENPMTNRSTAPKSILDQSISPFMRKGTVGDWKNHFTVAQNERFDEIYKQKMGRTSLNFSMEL
Protocol: as §1, §2, §3

mSult1b1 = target: T5, mSult1b1 (Mus musculus, UniProt Q9QWG7); assay: HMF sulfoconjugation assay; format: biochemical
T5 construct: made in house; host or cells: Salmonella typhimurium TA1538 (cytosolic fraction, enzyme not purified)
T5 sequence (Q9QWG7 whole entry): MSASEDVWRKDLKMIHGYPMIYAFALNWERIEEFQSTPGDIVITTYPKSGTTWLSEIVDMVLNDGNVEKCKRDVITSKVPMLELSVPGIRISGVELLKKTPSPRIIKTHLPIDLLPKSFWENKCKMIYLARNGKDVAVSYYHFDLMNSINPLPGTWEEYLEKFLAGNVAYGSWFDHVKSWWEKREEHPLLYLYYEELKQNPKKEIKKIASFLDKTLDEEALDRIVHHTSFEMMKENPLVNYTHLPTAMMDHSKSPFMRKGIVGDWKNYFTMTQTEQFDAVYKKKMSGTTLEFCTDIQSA
Protocol: as §1, §2, §3

[2] = HMF sulfoconjugation, Michaelis-Menten fit

In the case of `O=Cc1ccc(CO)o1` [HMF, 5-Hydroxymethylfurfural], the “mutagenicity in SULT-expressing strains” value [1] is listed as “small, were detectable in those strains that expressed hSULT1A1, 1A3 and 1C2 as well as mSult1a1 and 1d1”, the Rate of sulfoconjugation (hSULT1B1; 0.1 mM HMF) is listed as 2.0 ± 0.5 pmol/mg/min and the Rate of sulfoconjugation (hSULT1B1; 1 mM HMF) is listed as 22.2 ± 5.2 pmol/mg/min. The Rate of sulfoconjugation (hSULT1B1; 10 mM HMF) was 133 ± 28 pmol/mg/min, the Rate of sulfoconjugation (hSULT1B1; 100 mM HMF) was 272 ± 49 pmol/mg/min and the “K M” value (hSULT1B1; [2]) was 13.3 ± 0.3 mM. The Rate of sulfoconjugation (hSULT2A1; 0.1 mM HMF) was less than 0.5 pmol/mg/min, the Rate of sulfoconjugation (hSULT2A1; 1 mM HMF) was 2.4 ± 0.6 pmol/mg/min and the Rate of sulfoconjugation (hSULT2A1; 10 mM HMF) was 31.1 ± 5.4 pmol/mg/min. It also gave a Rate of sulfoconjugation (hSULT2A1; 100 mM HMF) of 201 ± 39 pmol/mg/min, a Rate of sulfoconjugation (mSult1e1; 0.1 mM HMF) of 3.7 ± 0.3 pmol/mg/min and a Rate of sulfoconjugation (mSult1e1; 1 mM HMF) of 35.5 ± 2.6 pmol/mg/min. It also gave a Rate of sulfoconjugation (mSult1e1; 10 mM HMF) of 226 ± 9 pmol/mg/min, a Rate of sulfoconjugation (mSult1e1; 100 mM HMF) of 534 ± 52 pmol/mg/min and a Rate of sulfoconjugation (mSult1c2; 0.1 mM HMF) of less than 0.5 pmol/mg/min. It also gave a Rate of sulfoconjugation (mSult1c2; 1 mM HMF) of 2.0 ± 0.2 pmol/mg/min, a Rate of sulfoconjugation (mSult1c2; 10 mM HMF) of 16.2 ± 1.1 pmol/mg/min and a Rate of sulfoconjugation (mSult1c2; 100 mM HMF) of 92.4 ± 6.7 pmol/mg/min. For the same compound, the Rate of sulfoconjugation (mSult1b1; 0.1 mM HMF) was 0.9 ± 0.1 pmol/mg/min, the Rate of sulfoconjugation (mSult1b1; 1 mM HMF) was 8.2 ± 0.1 pmol/mg/min and the Rate of sulfoconjugation (mSult1b1; 10 mM HMF) was 66.2 ± 6.8 pmol/mg/min. The Rate of sulfoconjugation (mSult1b1; 100 mM HMF) was 64.4 ± 5.0 pmol/mg/min and the “K M” value (mSult1b1; [2]) was 9.5 ± 1.1 mM.
For `OCc1ccco1` [FFA, furfuryl alcohol], the “mutagenicity in SULT-expressing strains” value [1] is given as “highest mutagenicity of FFA was observed in bacteria expressing hSULT1A1, 1C2 and mSult1a1”.
